Experimental data: patent publication US9480259B2, “Pyrazolopyrans having herbicidal and pharmaceutical properties” (BASF SE, priority 2012, dated 2016)
pEC50: −log10 of the molar value.

biological target: Arabidopsis thaliana SHMT; assay: SHMT activity assay (ED50 SHMT), coupled with N5,N10-CH2-THF dehydrogenase, NADH at 340 nm; assay type: biochemical; settings: Table 2, Arabidopsis thaliana SHMT enzyme assay; values given as upper bounds
Summary of the method: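 His-tagged SHMT purified on Ni-NTA. NADH formation followed at 340 nm for 30 min; ED50 from inhibition of initial velocity.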

Row | Structure (SMILES) | pEC50
1 | N#CC1=C(N)Oc2[nH]ncc2C1(c1cc(Cl)cc(C#N)c1)C1CC1 (stereo not shown) [Compound 2.360] | > 7.00
2 | N#CC1=C(N)Oc2[nH]ncc2C1(c1cc(C#N)cc(C(F)(F)F)c1)C1CC1 (stereo not shown) [Compound 2.361] | > 7.00
3 | Cc1n[nH]c2c1C(c1cc(C#N)cc(C(F)(F)F)c1)(C1CC=CC1)C(C#N)=C(N)O2 (stereo not shown) [Compound 2.367] | > 8.00
4 | Cc1n[nH]c2c1C(c1cc(Cl)cc(C#N)c1)(C1CC=CC1)C(C#N)=C(N)O2 (stereo not shown) [Compound 2.368] | > 8.00
5 | N#CC1=C(N)Oc2[nH]ncc2C1(c1cc(C#N)cc(C(=O)OCc2ccccc2)c1)C1CCC1 (stereo not shown) [Compound 2.369] | > 8.00
6 | N#CC1=C(N)Oc2[nH]ncc2C1(c1cc(C#N)cc(C(=O)O)c1)C1CCC1 (stereo not shown) [Compound 2.372] | > 5.00
7 | N#CC1=C(N)Oc2[nH]ncc2C1(c1cc(Br)cc(C#N)c1)C1CC=CC1 (stereo not shown) [Compound 2.376] | > 8.00
8 | Cc1n[nH]c2c1C(c1cc(Br)cc(C#N)c1)(C1CC=CC1)C(C#N)=C(N)O2 (stereo not shown) [Compound 2.377] | > 8.00
9 | COc1n[nH]c2c1C(c1cc(Cl)cc(Cl)c1)(C(C)C)C(C#N)=C(N)O2 (stereo not shown) [Compound 2.378] | > 8.00
10 | N#CC1=C(N)Oc2[nH]ncc2C1(c1cc(Br)cc(C#N)c1)C1(F)CC1 (stereo not shown) [Compound 2.380] | > 8.00
11 | Cc1n[nH]c2c1C(c1cc(C#N)cc(C#N)c1)(C1(F)CC1)C(C#N)=C(N)O2 (stereo not shown) [Compound 2.383] | > 8.00
12 | CCOc1n[nH]c2c1C(c1cc(Cl)cc(Cl)c1)(C(C)C)C(C#N)=C(N)O2 (stereo not shown) [Compound 2.384] | > 8.00
13 | COc1n[nH]c2c1C(c1cc(Br)cc(C#N)c1)(C1CCC1)C(C#N)=C(N)O2 (stereo not shown) [Compound 2.388] | > 8.00
14 | COc1n[nH]c2c1C(c1cc(C#N)cc(C(F)(F)F)c1)(C1CCC1)C(C#N)=C(N)O2 (stereo not shown) [Compound 2.390] | > 8.00
15 | COc1n[nH]c2c1C(c1cc(C#N)cc(C(F)(F)F)c1)(C1CC1)C(C#N)=C(N)O2 (stereo not shown) [Compound 2.392] | > 7.00
16 | CCOc1n[nH]c2c1C(c1cc(C#N)cc(C(F)(F)F)c1)(C1CC1)C(C#N)=C(N)O2 (stereo not shown) [Compound 2.393] | > 6.00
17 | COc1n[nH]c2c1C(c1cc(Br)cc(C#N)c1)(C1(F)CC1)C(C#N)=C(N)O2 (stereo not shown) [Compound 2.394] | > 7.00
18 | CCOc1n[nH]c2c1C(c1cc(Br)cc(C#N)c1)(C1(F)CC1)C(C#N)=C(N)O2 (stereo not shown) [Compound 2.395] | > 6.00

More lines, now with the values ahead:

Row | pEC50 | Structure (SMILES)
19 | > 8.00 | Cc1n[nH]c2c1C(c1cc(Cl)cc(C#N)c1)(C1CC1)C(C#N)=C(N)O2 (stereo not shown) [Compound 2.359]
20 | > 8.00 | Cc1n[nH]c2c1C(c1cc(C#N)cc(-c3ccsc3Cl)c1)(C1CCC1)C(C#N)=C(N)O2 (stereo not shown) [Compound 2.363]
21 | > 8.00 | Cc1n[nH]c2c1C(c1cc(C#N)cc(-c3cc(Cl)sc3Cl)c1)(C1CCC1)C(C#N)=C(N)O2 (stereo not shown) [Compound 2.364]
22 | > 8.00 | Cc1n[nH]c2c1C(c1cc(Br)cc(C#N)c1)(C1CC1)C(C#N)=C(N)O2 (stereo not shown) [Compound 2.365]
23 | > 8.00 | Cc1n[nH]c2c1C(c1cc(C#N)cc(C#N)c1)(C1CC1)C(C#N)=C(N)O2 (stereo not shown) [Compound 2.366]
24 | > 8.00 | Cc1n[nH]c2c1C(c1cc(C#N)cc(C(=O)OCc3ccccc3)c1)(C1CCC1)C(C#N)=C(N)O2 (stereo not shown) [Compound 2.370]
25 | > 6.00 | Cc1n[nH]c2c1C(c1cc(C#N)cc(C(=O)O)c1)(C1CCC1)C(C#N)=C(N)O2 (stereo not shown) [Compound 2.371]
26 | > 8.00 | Cc1n[nH]c2c1C(c1cc(Cl)cc(C(=O)OCc3ccccc3)c1)(C1CCC1)C(C#N)=C(N)O2 (stereo not shown) [Compound 2.381]
27 | > 7.00 | Cc1n[nH]c2c1C(c1cc(Cl)cc(C(=O)O)c1)(C1CCC1)C(C#N)=C(N)O2 (stereo not shown) [Compound 2.382]
28 | > 8.00 | COc1n[nH]c2c1C(c1cc(Cl)cc(Cl)c1)(C1CCC1)C(C#N)=C(N)O2 (stereo not shown) [Compound 2.386]
29 | > 7.00 | CCOc1n[nH]c2c1C(c1cc(Cl)cc(Cl)c1)(C1CCC1)C(C#N)=C(N)O2 (stereo not shown) [Compound 2.387]
30 | > 8.00 | CCOc1n[nH]c2c1C(c1cc(Br)cc(C#N)c1)(C1CCC1)C(C#N)=C(N)O2 (stereo not shown) [Compound 2.389]
31 | > 7.00 | CCOc1n[nH]c2c1C(c1cc(C#N)cc(C(F)(F)F)c1)(C1CCC1)C(C#N)=C(N)O2 (stereo not shown) [Compound 2.391]
32 | > 7.00 | CCOc1n[nH]c2c1C(c1cc(C#N)cc(C#N)c1)(C1CCC1)C(C#N)=C(N)O2 (stereo not shown) [Compound 2.397]

same assay, conditions: Table 2; values given as upper bounds

Row | Structure (SMILES) | pEC50
33 | COc1c(F)cc(C2(C3(F)CC3)C(C#N)=C(N)Oc3[nH]nc(C)c32)cc1F (stereo not shown) [Compound 2.448] | > 6.00
34 | CC(=O)N(C)c1cc(C#N)cc(C2(C3(F)CC3)C(C#N)=C(N)Oc3[nH]nc(C)c32)c1 (stereo not shown) [Compound 2.451] | > 8.00
35 | Cc1n[nH]c2c1C(c1cc(C#N)cc(N3CCCC3=O)c1)(C1(F)CC1)C(C#N)=C(N)O2 (stereo not shown) [Compound 2.452] | > 6.00
36 | COC(=O)c1cccc(-c2cc(C#N)cc(C3(C4CCC4)C(C#N)=C(N)Oc4[nH]nc(C)c43)c2)c1 (stereo not shown) [Compound 2.453] | > 8.00
37 | COC(=O)c1ccc(-c2cc(C#N)cc(C3(C4CCC4)C(C#N)=C(N)Oc4[nH]nc(OC)c43)c2)cc1 (stereo not shown) [Compound 2.454] | > 6.00
38 | COC(=O)c1ccc(-c2cc(C#N)cc(C3(C4CCC4)C(C#N)=C(N)Oc4[nH]nc(C)c43)c2)cc1 (stereo not shown) [Compound 2.455] | > 7.00
39 | COC(=O)c1cccc(-c2cc(Cl)cc(C3(C4CCC4)C(C#N)=C(N)Oc4[nH]nc(OC)c43)c2)c1 (stereo not shown) [Compound 2.457] | > 8.00
40 | Cc1n[nH]c2c1C(c1cc(C#N)cc(-c3ccc(O)c(C(F)(F)F)c3)c1)(C1CCC1)C(C#N)=C(N)O2 (stereo not shown) [Compound 2.459] | > 8.00
41 | Cc1n[nH]c2c1C(c1cc(C#N)cc(-c3ccc(C(=O)O)cc3)c1)(C1CCC1)C(C#N)=C(N)O2 (stereo not shown) [Compound 2.460] | > 8.00
42 | Cc1n[nH]c2c1C(c1cc(C#N)cc(-c3cccc(C(=O)O)c3)c1)(C1CCC1)C(C#N)=C(N)O2 (stereo not shown) [Compound 2.461] | > 8.00
43 | COc1c(F)cc(-c2cc(C#N)cc(C3(C4CCC4)C(C#N)=C(N)Oc4[nH]nc(C)c43)c2)cc1F (stereo not shown) [Compound 2.463] | > 8.00
44 | N#CC1=C(N)Oc2[nH]nc(CO)c2C1(c1cc(C(F)(F)F)cc(C(F)(F)F)c1)C1(F)CC1 (stereo not shown) [Compound 2.465] | > 7.00
45 | CCC1(c2ccc(C)c(Br)c2)C(C#N)=C(N)Oc2[nH]nc(C)c21 (stereo not shown) [Compound 2.466] | > 7.00
46 | CCC1(c2cc(Cl)cc(Br)c2)C(C#N)=C(N)Oc2[nH]nc(C)c21 (stereo not shown) [Compound 2.468] | > 8.00
47 | CCC1(c2cc(C)cc(Br)c2)C(C#N)=C(N)Oc2[nH]nc(C)c21 (stereo not shown) [Compound 2.469] | > 8.00
48 | CCC1(c2ccc(Br)c(Cl)c2)C(C#N)=C(N)Oc2[nH]nc(C)c21 (stereo not shown) [Compound 2.472] | > 7.00
49 | CCC1(c2cc(Br)c(C)c(Br)c2)C(C#N)=C(N)Oc2[nH]nc(C)c21 (stereo not shown) [Compound 2.473] | > 8.00
50 | Cc1n[nH]c2c1C(c1cc(C#N)cc(-c3cc(F)c(O)c(F)c3)c1)(C1CCC1)C(C#N)=C(N)O2 (stereo not shown) [Compound 2.484] | > 8.00

Other lines, results leading:

Row | pEC50 | Structure (SMILES)
51 | > 8.00 | Cc1n[nH]c2c1C(c1cc(Cl)cc(OCC#N)c1)(C1CCC1)C(C#N)=C(N)O2 (stereo not shown) [Compound 2.443]
52 | > 7.00 | COc1n[nH]c2c1C(c1cc(Cl)cc(OCC#N)c1)(C1CCC1)C(C#N)=C(N)O2 (stereo not shown) [Compound 2.444]
53 | > 8.00 | COCOc1cc(Cl)cc(C2(C3CCC3)C(C#N)=C(N)Oc3[nH]nc(C)c32)c1 (stereo not shown) [Compound 2.445]
54 | > 8.00 | Cc1n[nH]c2c1C(c1cc(Cl)cc(OCc3nnn[nH]3)c1)(C1CCC1)C(C#N)=C(N)O2 (stereo not shown) [Compound 2.446]
55 | > 8.00 | COc1c(F)cc(C2(C3CCC3)C(C#N)=C(N)Oc3[nH]nc(C)c32)cc1F (stereo not shown) [Compound 2.447]
56 | > 7.00 | Cc1n[nH]c2c1C(c1cc(F)c(O)c(F)c1)(C1CCC1)C(C#N)=C(N)O2 (stereo not shown) [Compound 2.449]
57 | > 8.00 | COC(=O)c1cccc(-c2cc(Cl)cc(C3(C4CCC4)C(C#N)=C(N)Oc4[nH]nc(C)c43)c2)c1 (stereo not shown) [Compound 2.456]
58 | > 7.00 | COC(=O)c1ccc(-c2cc(Cl)cc(C3(C4CCC4)C(C#N)=C(N)Oc4[nH]nc(C)c43)c2)cc1 (stereo not shown) [Compound 2.458]
59 | > 8.00 | COc1ccc(C2(C3CCC3)C(C#N)=C(N)Oc3[nH]nc(C)c32)cc1C#N (stereo not shown) [Compound 2.464]
60 | > 8.00 | Cc1n[nH]c2c1C(c1cc(C#N)cc(OCC#N)c1)(C1CCC1)C(C#N)=C(N)O2 (stereo not shown) [Compound 2.471]
61 | > 8.00 | Cc1n[nH]c2c1C(c1cc(OCc3nnn[nH]3)cc(C(F)(F)F)c1)(C1CCC1)C(C#N)=C(N)O2 (stereo not shown) [Compound 2.474]
62 | > 8.00 | Cc1n[nH]c2c1C(c1cc(C#N)cc(OCc3nnn[nH]3)c1)(C1CCC1)C(C#N)=C(N)O2 (stereo not shown) [Compound 2.475]
63 | > 8.00 | COCOc1cc(C(F)(F)F)cc(C2(C3CCC3)C(C#N)=C(N)Oc3[nH]nc(C)c32)c1 (stereo not shown) [Compound 2.476]
64 | > 8.00 | COCOc1cc(C#N)cc(C2(C3CCC3)C(C#N)=C(N)Oc3[nH]nc(C)c32)c1 (stereo not shown) [Compound 2.477]
65 | > 7.00 | CCOC(=O)COc1cc(Br)cc(C2(C3(F)CC3)C(C#N)=C(N)Oc3[nH]nc(C)c32)c1 (stereo not shown) [Compound 2.479]
66 | > 7.00 | CCOC(=O)COc1cc(Cl)cc(C2(C3CCC3)C(C#N)=C(N)Oc3[nH]nc(C)c32)c1 (stereo not shown) [Compound 2.480]
67 | > 8.00 | Cc1n[nH]c2c1C(c1cc(Cl)cc(Oc3ccc(O)cc3[N+](=O)[O-])c1)(C1CCC1)C(C#N)=C(N)O2 (stereo not shown) [Compound 2.481]
68 | > 8.00 | Cc1n[nH]c2c1C(c1cc(Cl)cc(-c3cccc(C(=O)O)c3)c1)(C1CCC1)C(C#N)=C(N)O2 (stereo not shown) [Compound 2.482]
69 | > 8.00 | Cc1n[nH]c2c1C(c1cc(Cl)cc(-c3ccc(C(=O)O)cc3)c1)(C1CCC1)C(C#N)=C(N)O2 (stereo not shown) [Compound 2.483]
70 | > 8.00 | Cc1n[nH]c2c1C(c1ccc(O)c(Cl)c1)(C1CCC1)C(C#N)=C(N)O2 (stereo not shown) [Compound 2.485]
71 | > 8.00 | COc1c(Cl)cc(C2(C3CCC3)C(C#N)=C(N)Oc3[nH]nc(C)c32)cc1C#N (stereo not shown) [Compound 2.487]
72 | > 8.00 | Cc1n[nH]c2c1C(c1cc(Cl)cc(N3CCOCC3)c1)(C1CCC1)C(C#N)=C(N)O2 (stereo not shown) [Compound 2.488]
73 | > 8.00 | Cc1n[nH]c2c1C(c1cc(Cl)cc(NS(=O)(=O)c3ccccc3)c1)(C1CCC1)C(C#N)=C(N)O2 (stereo not shown) [Compound 2.490]
